The record followed here is patent US20080167189A1, “Polymer Compositions and Their Use in the Production of Active or Effective Ingredient Compositions” (Basf Aktiengesellschaft, priority 2005, published 2008).

By solubility is commonly meant the concentration that dissolves in the medium under given conditions. A high value points to much dissolved substance.

One data set can be described thus: physchem. Conditions: water.
The nature of data set [1]: Solubility of the active compounds in distilled water.

In brackets after ≈: the same amount, converted by molar mass.

With `O=C(Nc1ccccc1-c1ccc(Cl)cc1)c1cccnc1Cl` [Boscalid], the solubility in “physchem” stood at 4.6 µg/mL (≈ 13.4 µM).
As to `COC(=O)N(OC)c1ccccc1COc1ccn(-c2ccc(Cl)cc2)n1` [Pyraclostrobin], the concentration in solution in data set [1] (solubility) came to 2.4 µg/mL (≈ 6.19 µM).
